From US20110251135A1, “INHIBITORS OF PERITONEAL SEEDING OF CANCER CELLS” (University of Utah Research Foundation, priority 2008, published 2011)

Experiments:
[1] = athymic mice; BAY 11-7085 5 mg/kg IP, 4 doses total
[2] = tested on: pancreatic (Su.86, PL-45) and colon cancer cells (HT-29); test: Cleaved PARP western blot during readhesion; assay type: cell-based, human; conditions: 10-20 μM BAY 11-7085; 8 hours
Protocol: FIG. 10 is a graph showing that BAY 11-7085 induces apoptosis of pancreatic and colon cancer cells during readhesion. Pancreatic (Su.86, PL-45) and colon cancer cells (HT-29) were transiently suspended and allowed to readhere in the presence or absence of vehicle or various concentrations of BAY 11-7085 for 8 hours. The floating and adherent cells were collected and lysed. Western blots for cleaved PARP were performed to determine if the cells were undergoing apoptosis (FIG. 10A). Transiently suspended pancreatic cancer cells ([…] per well) were allowed to readhere in the presence of vehicle or various concentrations of BAY 11-7085 for 24 hours. Nonadherent apoptotic cells were washed away and the remaining adherent cells stained with crystal violet and then dried. The crystal violet stained cells were lysed and the absorbance read in a plate spectrophotometer (FIG. 10B). […] The results are expressed as a percentage of cells surviving compared with vehicle alone.
BxPc-3, PL-45, Su.86.86 and HT-29 cells were transiently suspended and treated in vitro with varying concentrations of BAY 11-7085 or DMSO for four to eight hours. […] The degree of apoptosis was determined by western blotting for cleaved PARP.

[3] = tested on: transiently suspended HT-29 cells; test: Apoptosis of transiently suspended cells during readhesion (annexin V assay); assay type: cell-based, human
Protocol: HT-29 cells that were either transiently suspended with trypsin-EDTA or adherent for three days, were treated at time zero with DMSO or 10-100 μM BAY 11-7085. The percent of apoptotic cells was determined using the annexin V flow cytometry assay and graphed versus the dose of BAY 11-7085. FIG. 4B are photographs showing DLD-1, FIG. 4C are photographs showing HCT-116, and FIG. 4D are photographs showing HT-29 cells that were transiently suspended in trypsin-EDTA and allowed to readhere to glass coverslips for 1-24 hours. The cells were fixed and immunostained with an NF-κB p65 subunit monoclonal antibody.
The transiently suspended cells were lysed and allowed to bind to DNA oligonucleotides, containing the NF-κB consensus binding site, that were immobilized to 96-well plates. NF-κB protein bound to the oligonucleotides was detected by an antibody to the p65 subunit that only recognized p65 that is bound to DNA. The positive control was HeLa cells that were stimulated with TNFα. A control was performed using excess free NF-κB oligonucleotides (Competitor). […] NF-κB binding activity was determined by the TransAM assay as in FIG. 5A. […] The data shown represent typical results of three separate experiments. […] An immunoblot for COX-2 was performed.
The percentage of apoptotic cells was determined using the annexin V assay. The data points represent the averages of three experiments; bars, +−.SE. E. DLD-1 and F. HT-29 cells were transduced with an adenovirus containing the IκB super-repressor construct. After 3 days, the cells were transiently suspended and allowed to readhere in the presence of subapoptotic concentrations of BAY 11-7085 or DMSO (vehicle) for 8 hours. The data are expressed as fractions of cells surviving compared with the controls (no adenovirus) and were quantitatively determined by staining the remaining adherent cells with crystal violet.
Single cell suspensions were plated at 100,000 cells per well in 24-well plates in media containing DMSO, BAY 11-7082, BAY 11-7085, or MG-132 for 8-24 hours in an incubator. Alternatively, DMSO, BAY 11-7082, BAY 11-7085, or MG-132 were added to cells that were confluent and adherent for several days. The nonadherent cells were aspirated off with the media and spun for 3 minutes at 2,000 rpm in 15 mL polypropylene tubes. The adherent cells were washed twice with PBS, dispersed in trypsin, and spun down for 3 minutes at 2,000 rpm in 15 mL polypropylene tubes. The nonadherent and adherent cells were resuspended in 1× binding buffer (10 mM HEPES/NaOH, pH 7.4, 140 mM NaCl, and 2.5 mM CaCl2) to a final concentration of 10^6 cells/mL. 100 μL of the cell solution were transferred to a 5 mL culture tube and incubated with 5 μL of annexin V-FITC-conjugated monoclonal antibody (Pharmingen) and 10 μl, of propidium iodide (from a 50 μg/mL stock solution made in PBS) in the dark at 25° C. for 15 minutes. 400 μL of binding buffer was added to each tube and the cells were analyzed by flow cytometry immediately. The percent of apoptosis was determined as the percent of annexin V-positive, propidium iodide-negative cells of the total cells counted.
Various concentrations of BAY 11-7085 were added to HT-29 cells that were transiently suspended in trypsin-PBS for approximately 15 minutes before replating. The transiently suspended cells were quickly allowed to readhere in order to prevent anoikis. Alternatively, BAY 11-7085 was added to adherent HT-29 cell monolayers.

[4] = tested on: HCT-116 cells transfected with human c-FLIP or empty vector; test: Annexin V-FITC assay, readhesion of HCT-116 cells transfected with human c-FLIP or empty vector; assay type: cell-based; conditions: readhesion 8 hours
Protocol: Since HCT-116 colon cancer cells have relatively low levels of FLIP compared with other cancer cell lines (FIG. 13A), they were transfected with human c-FLIP. HCT-116 cells that were transfected with human c-FLIP or empty vector were transiently suspended and allowed to readhere in the presence of BAY 11-7085 for 8 hours. […] Thus, FLIP appears to be an important target of BAY 11-7085 and is able to inhibit BAY 11-7085-mediated apoptosis during colon cancer cell readhesion.

[5] = tested on: DLD-1, HCT-116, HT-29 colon cancer cell lines; test: Cell proliferation assay (crystal violet, 96-well); assay type: cell-based, human; conditions: 10 μM, cultured up to 8 days
Protocol: The data points represent the means of triplicate experiments and the error bars the standard errors of the means. […] The percent of apoptotic cells was then determined by the annexin V assay. […] The results shown are typical of two separate experiments. […] Immunoblots were performed for c-IAP-2, TRAF-1, TRAF-2, and FLIP. All lanes contain equal total protein.
For the cell proliferation assay, cells were dispersed and plated at 40,000 cells/well in 96-well dishes. At various days in culture, the cells were gently washed twice with 100 μL/well of ice-cold blocking buffer (1% radioimmunoassay grade BSA in PBS) and twice with 100 μL/well of ice-cold PBS. The cells were fixed for 10 min in 100% ice-cold methanol (100 μL/well), then allowed to air-dry. The cells were stained with 100 μL/well of 0.1% crystal violet in H20 for 10 minutes, then washed gently four times with dd H20 and four times with PBS. The plates were then air-dried completely. The stained cells were then solubilized in 1% sodium deoxycholate, and the plates read at 590 nm in a spectrophotometer. The absorption at 590 nm is proportional to the number of attached cells.

CC(C)(C)c1ccc(S(=O)(=O)/C=C/C#N)cc1 [BAY 11-7085, (2E)-3-[4-(tertiarybutylphenyl)sulfonyl]-2-propenenitrile]
deaths / overt signs of toxicity [1]: None of the mice died or showed overt signs of toxicity
apoptosis (cleaved PARP levels) during cell readhesion [2]: increased apoptosis (cleaved PARP levels)
BAY 11-7085-induced apoptosis during readhesion ([3]; HT-29 transiently suspended, treated and allowed to readhere, 8 hours): showed the same propensity for BAY 11-7085-induced apoptosis
apoptosis of transiently suspended HT-29 cells ([3]; all concentrations tested (10-100 μM), cells suspended in trypsin-PBS then replated): caused a significant increase in apoptosis
apoptosis (Annexin V-FITC assay) ([4]; HCT-116 over-expressing FLIP): much more resistant to BAY 11-7085
apoptosis (Annexin V-FITC assay) ([4]; control (empty vector) HCT-116): induced apoptosis
cell proliferation [5]: greatly inhibited cell proliferation
